Results from US11332459B2 (TEIJIN PHARMA LIMITED, priority 2017, dated 2022).
Where a name gives a salt, the structure may show the parent alone.

Molecular target: T1, human TRPC6 (Homo sapiens, UniProt Q9Y210)
T1 construct: expressed in transfected cells
T1 sequence (Q9Y210 1-931): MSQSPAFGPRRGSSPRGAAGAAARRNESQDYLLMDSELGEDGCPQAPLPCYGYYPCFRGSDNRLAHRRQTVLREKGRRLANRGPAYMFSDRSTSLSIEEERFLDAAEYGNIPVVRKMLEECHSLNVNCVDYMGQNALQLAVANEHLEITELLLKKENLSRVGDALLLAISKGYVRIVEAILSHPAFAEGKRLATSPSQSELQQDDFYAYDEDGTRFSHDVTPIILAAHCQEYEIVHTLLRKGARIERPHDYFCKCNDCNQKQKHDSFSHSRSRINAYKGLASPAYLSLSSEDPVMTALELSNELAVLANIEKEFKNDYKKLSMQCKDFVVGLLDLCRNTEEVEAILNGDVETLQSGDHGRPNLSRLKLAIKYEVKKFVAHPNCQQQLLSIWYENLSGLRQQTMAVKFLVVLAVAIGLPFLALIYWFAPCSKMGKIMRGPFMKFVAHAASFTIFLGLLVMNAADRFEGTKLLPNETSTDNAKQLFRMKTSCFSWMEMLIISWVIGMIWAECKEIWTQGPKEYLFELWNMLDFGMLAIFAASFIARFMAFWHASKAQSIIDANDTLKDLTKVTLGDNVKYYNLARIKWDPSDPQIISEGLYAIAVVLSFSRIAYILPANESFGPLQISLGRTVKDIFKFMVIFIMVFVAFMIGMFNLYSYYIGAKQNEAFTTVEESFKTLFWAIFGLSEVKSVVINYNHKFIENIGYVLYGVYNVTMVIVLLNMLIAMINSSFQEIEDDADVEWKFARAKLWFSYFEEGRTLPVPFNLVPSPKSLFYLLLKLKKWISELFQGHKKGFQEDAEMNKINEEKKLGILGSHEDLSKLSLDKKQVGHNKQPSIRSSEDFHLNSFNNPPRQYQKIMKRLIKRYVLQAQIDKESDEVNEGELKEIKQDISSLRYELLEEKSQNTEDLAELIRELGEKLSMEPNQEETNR
Assay: TRPC6 calcium flux assay (FLIPR, OAG-stimulated calcium influx)
Format: cell-based
Settings: HEK293 cells stably transfected with human TRPC6, read-out: hTRPC6 Potency
Method in brief: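 IC50 derived by plotting background-corrected peak fluorescence (180 s window, normalized to OAG-triggered signal vs buffer) against dose. Stable human TRPC6 HEK293 line was dye-loaded, exposed to compound 25 min, then challenged with 50 uM final OAG in 2 mM Ca2+ HEPES buffer pH 7.2, 0.5% DMSO.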

Row | Structure (SMILES) | IC50 [µM]
1 | CN(CC(F)(F)F)C(=O)Cn1c(N2CC[C@@H](O)[C@H](N)C2)nc2ccc(F)cc21 [Example 481, 2-(2-((3R,4R)-3-amino-4-hydroxypiperidin-1-yl)-6-fluoro-1H-benzo[d]imidazol-1-yl)-N-methyl-N-(2,2,2-trifluoroethyl)acetamide] | 2.4
2 | C[C@H](c1ccc(F)cc1F)n1c(N2CC[C@@H](F)[C@H](N)C2)nc2cc(F)c(F)cc21 [Example 330, (3R,4R)-1-(1-((1R)-1-(2,4-difluorophenyl)ethyl)-5,6-difluoro-1H-benzimidazol-2-yl)-4-fluoro-3-piperidinamine] | 0.669
3 | N[C@@H]1CN(c2nc3cc(F)c(F)cc3n2Cc2ccc(OC(F)(F)F)cc2)CC[C@H]1F [Example 362, (3R,4R)-1-(5,6-difluoro-1-(4-(trifluoromethoxy)benzyl)-1H-benzimidazol-2-yl)-4-fluoro-3-piperidinamine] | 0.256
4 | N#Cc1ccc(Cn2c(N3CC[C@@H]4OCCN[C@H]4C3)nc3ccccc32)nc1 [Example 132, 6-((2-((4aS,8aS)-hexahydro-2H-pyrido[4,3-b][1,4]oxazin-6(5H)-yl)-1H-benzimidazol-1-yl)methyl)-3-pyridinecarbonitrile] | 0.042
5 | N[C@@H]1CN(c2nc3ccccc3n2Cc2ncc(C(F)(F)F)cn2)CC[C@H]1F [Example 193, (3R,4R)-4-fluoro-1-(1-((5-(trifluoromethyl)pyrimidin-2-yl)methyl)-1H-benzo[d]imidazol-2-yl)piperidin-3-amine] | 0.0485
6 | N#Cc1ccc(Cn2c(N3CCC[C@H](N)C3)nc3ccc(F)cc32)nc1 [Example 45, (S)-6-((2-(3-aminopiperidin-1-yl)-6-fluoro-1H-benzo[d]imidazol-1-yl)methyl)nicotinonitrile hydrochloride] | 0.00236
7 | N#Cc1ccc(Cn2c(N3CCC[C@H](N)C3)nc3ccc(Cl)cc32)nc1 [Example 1, (S)-6-((2-(3-aminopiperidin-1-yl)-6-chloro-1H-benzo[d]imidazol-1-yl)methyl)nicotinonitrile] | 0.000696
8 | N[C@@H]1CN(c2nc3cc(F)c(F)cc3n2CC(=O)N2CCC3CCCCC3C2)CC[C@H]1F (mixture of isomers) [Example 523, 2-(2-((3R,4R)-3-amino-4-fluoropiperidin-1-yl)-5,6-difluoro-1H-benzo[d]imidazol-1-yl)-1-(octahydroisoquinolin-2(1H)-yl)ethan-1-one] | 0.988
9 | N[C@@H]1CN(c2nc3cc(F)ccc3n2Cc2ncc(Cl)cn2)CC[C@@H]1F [Example 40, (3R,4S)-1-(1-((5-chloropyrimidin-2-yl)methyl)-5-fluoro-1H-benzo[d]imidazol-2-yl)-4-fluoropiperidin-3-amine] | 0.00461
10 | CN[C@H]1CCCN(c2nc3cc(C(F)(F)F)ccc3n2Cc2ccc(C#N)cn2)C1 [Example 140, 6-((2-((3S)-3-(methylamino)-1-piperidinyl)-5-(trifluoromethyl)-1H-benzimidazol-1-yl)methyl)-3-pyridinecarbonitrile] | 0.132
11 | N#Cc1ccc(Cn2c(N3CC[C@@](F)(CN)C3)nc3ccccc32)cc1 [Example 174, (R)-4-((2-(3-(aminomethyl)-3-fluoropyrrolidin-1-yl)-1H-benzo[d]imidazol-1-yl)methyl)benzonitrile 2,2,2-trifluoroacetate] | 0.564
12 | C[C@@H]1CCN(c2nc3ccccc3n2Cc2ccc(C#N)cc2)C[C@H]1N [Example 181, 4-((2-((3S,4R)-3-amino-4-methylpiperidin-1-yl)-1H-benzo[d]imidazol-1-yl)methyl)benzonitrile 2,2,2-trifluoroacetate] | 0.000907
13 | Cc1cnc(Cn2c(N3CC[C@@H](F)[C@H](N)C3)nc3cc(F)c(F)cc32)o1 [Example 567, (3R,4R)-1-(5,6-difluoro-1-((5-methyloxazol-2-yl)methyl)-1H-benzo[d]imidazol-2-yl)-4-fluoropiperidin-3-amine] | 0.0398
14 | N[C@@H]1CN(c2nc3cc(F)c(F)cc3n2Cc2ccc(C(F)(F)F)cc2)CC[C@H]1F [Example 361, (3R,4R)-1-(5,6-difluoro-1-(4-(trifluoromethyl)benzyl)-1H-benzimidazol-2-yl)-4-fluoro-3-piperidinamine] | 0.0668
15 | C[C@H]1CCN(c2nc3ccccc3n2Cc2ccc(C#N)cc2)C[C@@H]1N [Example 182, 4-((2-((3R,4S)-3-amino-4-methylpiperidin-1-yl)-1H-benzo[d]imidazol-1-yl)methyl)benzonitrile 2,2,2-trifluoroacetate] | 0.314
16 | CN(C)C(=O)Cn1c(N2CC[C@H](F)[C@H](N)C2)nc2cc(Cl)ccc21 [Example 471, 2-(2-((3R,4S)-3-amino-4-fluoropiperidin-1-yl)-5-chloro-1H-benzo[d]imidazol-1-yl)-N,N-dimethylacetamide] | 0.36
17 | C[C@H](c1cccc2cccnc12)n1c(N2CC[C@@H](F)[C@H](N)C2)nc2cc(F)c(F)cc21 [Example 261, (3R,4R)-1-(5,6-difluoro-1-((1R)-1-(8-quinolinyl)ethyl)-1H-benzimidazol-2-yl)-4-fluoro-3-piperidinamine] | > 3.75
18 | CC(C)(C)NC(=O)c1ccc(Cn2c(N3CC[C@@H](F)[C@H](N)C3)nc3ncc(Cl)cc32)nc1 [Example 94, 6-((2-((3R,4R)-3-amino-4-fluoropiperidin-1-yl)-6-chloro-1H-imidazo[4,5-b]pyridin-1-yl)methyl)-N-(tert-butyl)nicotinamide] | 0.615
19 | CO[C@@H]1CCN(c2nc3ccc(F)cc3n2Cc2ncc(Cl)cn2)C[C@H]1N [Example 454, (3R,4R)-1-(1-((5-chloropyrimidin-2-yl)methyl)-6-fluoro-1H-benzo[d]imidazol-2-yl)-4-methoxypiperidin-3-amine] | 0.00152
20 | Cc1cccc2c1nc(N1CC[C@@H](F)[C@H](N)C1)n2Cc1ccc(C#N)cn1 [Example 121, 6-((2-((3R,4R)-3-amino-4-fluoro-1-piperidinyl)-4-methyl-1H-benzimidazol-1-yl)methyl)-3-pyridinecarbonitrile] | 0.00559
21 | N#Cc1ccc(Cn2c(N3CC[C@H](F)[C@H](N)C3)nc3ccc(Cl)cc32)cc1 [Example 401, 4-((2-((3R,4S)-3-amino-4-fluoropiperidin-1-yl)-6-chloro-1H-benzo[d]imidazol-1-yl)methyl)benzonitrile hydrochloride] | 0.000456
22 | N#Cc1ccc(Cn2c(N3CC[C@H](F)[C@H](N)C3)nc3ccc(C(F)(F)F)cc32)nc1 [Example 106, 6-((2-((3R,4S)-3-amino-4-fluoro-1-piperidinyl)-6-(trifluoromethyl)-1H-benzimidazol-1-yl)methyl)-3-pyridinecarbonitrile] | 0.00045
23 | N#Cc1ccc(Cn2c(N3CCC[C@@](N)(C(N)=O)C3)nc3ccccc32)nc1 [Example 102, (S)-3-amino-1-(1-((5-cyanopyridin-2-yl)methyl)-1H-benzo[d]imidazol-2-yl)piperidine-3-carboxamide] | > 3.75
24 | C[C@@H](c1ccc(C#N)cn1)n1c(N2CC[C@@H]3OCCN[C@H]3C2)nc2cc(F)cc(F)c21 [Example 273, 6-((1S)-1-(5,7-difluoro-2-((4aS,8aS)-hexahydro-2H-pyrido[4,3-b][1,4]oxazin-6(5H)-yl)-1H-benzimidazol-1-yl)ethyl)-3-pyridinecarbonitrile] | 0.0137
25 | CN(CC(F)(F)F)C(=O)Cn1c(N2CC[C@@H](F)[C@H](N)C2)nc2cc(F)c(F)cc21 [Example 500, 2-(2-((3R,4R)-3-amino-4-fluoropiperidin-1-yl)-5,6-difluoro-1H-benzo[d]imidazol-1-yl)-N-methyl-N-(2,2,2-trifluoroethyl)acetamide] | 0.00515
26 | C[C@@H](CC#N)NC(=O)Cn1c(N2CC[C@@H](F)[C@H](N)C2)nc2ccc(F)cc21 [Example 669, 2-(2-((3R,4R)-3-amino-4-fluoropiperidin-1-yl)-6-fluoro-1H-benzo[d]imidazol-1-yl)-N-((S)-1-cyanopropan-2-yl)acetamide] | 0.901
27 | N#Cc1ccc(Cn2c(N3CC[C@@H](F)[C@H](N)C3)nc3ccncc32)cc1 [Example 413, 4-((2-((3R,4R)-3-amino-4-fluoropiperidin-1-yl)-3H-imidazo[4,5-c]pyridin-3-yl)methyl)benzonitrile] | 0.221
28 | C[C@H](c1ccc(C#N)cn1)n1c(N2CC[C@H]3OCCN[C@@H]3C2)nc2cc(F)cc(F)c21 [Example 271, 6-((1R)-1-(5,7-difluoro-2-((4aR,8aR)-hexahydro-2H-pyrido[4,3-b][1,4]oxazin-6(5H)-yl)-1H-benzimidazol-1-yl)ethyl)-3-pyridinecarbonitrile] | 0.158
